# Experimental data taken from publication PMC4418694, “Crystal Structure of Fad35R from Mycobacterium tuberculosis H37Rv in the Apo-State” (PLoS ONE, 2015).
# Biological target: T1, Fad35R (Mycobacterium tuberculosis, UniProt O06169)
# T1 construct: gene Rv2506
# T1 sequence (O06169 entry or part of it): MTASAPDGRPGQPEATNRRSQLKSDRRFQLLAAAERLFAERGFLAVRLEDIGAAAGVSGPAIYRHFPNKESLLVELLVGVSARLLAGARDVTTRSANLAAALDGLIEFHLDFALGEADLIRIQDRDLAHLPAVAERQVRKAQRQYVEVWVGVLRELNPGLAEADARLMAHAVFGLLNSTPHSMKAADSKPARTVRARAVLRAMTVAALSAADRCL
smiles,measurement,value
CN(C)[C@@H]1C(=O)C(C(N)=O)=C(O)[C@@]2(O)C(=O)C3=C(O)c4c(O)cccc4[C@@](C)(O)[C@H]3C[C@@H]12 [tetracycline],"ligand-induced oligomerization: dynamic light scattering, size-exclusion chromat",Tc bound Fad35R has the propensity to form higher oligomers
